Holding throughout (assay type): binding
The target of one assay is T1, DC-SIGN CRD wildtype (Homo sapiens, UniProt Q9NNX6).
T1 construct: acids 253-404 of DC-SIGN; His-tag (N); made in house
T1 sequence (Q9NNX6 253-404): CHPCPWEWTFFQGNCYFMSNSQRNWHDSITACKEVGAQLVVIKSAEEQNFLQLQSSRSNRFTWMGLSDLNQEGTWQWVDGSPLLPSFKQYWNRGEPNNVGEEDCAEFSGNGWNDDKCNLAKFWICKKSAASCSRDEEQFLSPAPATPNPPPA
In words: 1H-15N HSQC NMR titration (CSP fitting). As for the experimental part:
1H-15N HSQC NMR. 1H-15N HSQC NMR spectra were collected with 256 increments in the nitrogen and 24 scans per increment and 2048 points in the direct dimension. The relaxation delay d1 was set to 1.0 s. The W5 WATERGATE pulse sequence was used for solvent suppression.3, 4 Experiments were performed at a CRD concentration of 200 μM in 20 mM MES, 40 mM NaCl, 10 mM CaCl2 (pH 6.0) supplemented with 10% D 2O and, if applicable, varying concentrations of ligands. Samples of apo DC -SIGN CRD were prepared as described for 1H-13C HSQC NMR experiments. A previously published resonance assignment of DC-SIGN CRD was transferred to the nearest neighbor in a reference spectrum recorded without ligand.5 Unassigned, overlapping or disappearing peaks were not assigned.
CSPs induced by mutations or ligands were calculated as previously described according to […]
The empirical weighing factor a was set to 0.15 for all calculations.
Dissociation constants (K Ds) were determined in titration experiments at five ligand concentratio ns […]
in the fast exchange regime were used for the fitting procedure via equation 4 in a global two - […]
with CSP max corresponding to the CSP values upon saturation and the bound protein fraction p b […]
CHESPA was performed as previously described .7 The chemical shift vector between apo and holo wildtype DC -SIGN CRD was used as reference perturbation to calculate the vector product to […]

The target in another assay is T2, DC-SIGN ECD M270F (Homo sapiens, UniProt Q9NNX6, M270F).
T2 construct: acids 64 -404 of DC -SIGN; made in house
T2 sequence (Q9NNX6 64-404 M270F): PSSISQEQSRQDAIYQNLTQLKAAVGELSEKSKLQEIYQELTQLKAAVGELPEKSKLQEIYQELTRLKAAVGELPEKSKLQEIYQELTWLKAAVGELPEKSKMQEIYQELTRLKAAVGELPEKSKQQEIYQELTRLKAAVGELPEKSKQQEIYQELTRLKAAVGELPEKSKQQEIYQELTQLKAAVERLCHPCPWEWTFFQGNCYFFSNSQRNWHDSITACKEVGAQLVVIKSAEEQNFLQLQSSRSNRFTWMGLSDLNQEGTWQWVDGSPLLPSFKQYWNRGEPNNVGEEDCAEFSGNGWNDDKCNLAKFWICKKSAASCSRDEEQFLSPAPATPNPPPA
In words: Plate-based horseradish peroxidase assay. To be noted: 1 µg mL-1 HRP, 25 mM CaCl2. Here is the method:
(§1) chromatography. Purified protein was dialyzed against 25 mM HEPES, 150 mM NaCl, 10 mM CaCl2, pH 7.4, concentrated using a centrifugal spin filter, snap frozen and then stored at -80°C. […]
(§2) Plate-based horseradish peroxidase assay
(§3) General remarks. Unless stated otherwise, all reagents and buffers were obtained from Sigma Aldrich or Carl Roth. Measurements were done on a Enspire Multimode Plate Reader (PerkinElmer). GraphPad Prism was used for all data processing and analysis.
(§4) CaCl2 titration. 100 µg mL-1 DC-SIGN ECD were immobilized in immobilization buffer (25 mM HEPES, 150 mM NaCl, 25 mM CaCl 2, pH 7.4) overnight at 4°C on transparent Nunc Maxisorp 96-well plates (Thermo Fisher). Protein solution was removed, and plates were washed three times with immobilization buffer and then blocked for 2 hours at 4°C with blocking buffer (25 mM HEPES, 150 mM NaCl, 25 mM CaCl 2, 2% BSA, 0.01% Tween -20). Plates were washed twice with 25 mM HEPES, 150 mM NaCl, 5 mM EDTA, pH 7.4 and twice with 25 mM HEPES, 150 mM NaCl, pH 7.4 to remove residual Ca 2+. To titrate Ca2+, CaCl2 in 25 mM HEPES, 150 mM NaCl, pH 7.4 was serially diluted on the plate at a constant HRP concentration of 1 µg mL-1 and then incubated at RT for 2 hours. Following incubation, plates were washed three times with 25 mM HEPES, 150 mM NaCl, pH 7.4 and bound HRP was detected using a TMB substrate kit (Thermo Fisher) and 0.18 M H2SO4 according to manufacturer’s instructions. Absorption was […]
(§5) HRP titration. Immobilization and blocking were done as described above. After blocking, plates were washed three times with immobilization buffer. HRP in immobilization buffer was serially diluted on the plate at a constant concentration CaCl2 concentration of 25 mM and then incubated […]
(§6) at RT for 2 hours. Following incubation, plates were washed three times with immobilization buffer and HRP was detected as described above.
(§7) Immobilization and blocking were done as described above. After blocking, plates were washed three times with immobilization buffer. Mannose in immobilization buffer containing 1 µg mL-1 HRP was serially diluted on the plate and then incubated at RT for 2 hours.
(§8) Following incubation, plates were washed three times with immobilization buffer and HRP was detected as described above.
(§9) All conditions were measured in technical triplicates, averaged and normalized to the control well […]
(§10) IC50 and EC50 values and hill […]
(§11) slopes (nH) were obtained in a four-parameter fit according to equation (1).
(§12) Y = bottom + top − bottom (1)
(§13) With bottom and top representing the minimal and maximal response plateaus, respectively, Y as the observed response and X the logarithmic concentration of the ligand . […]
(§14) Biosynth. Spectra were processed in TopSpin 4.2.0 and data analysis was performed using CCPN Analysis 3.2.0 for 2D spectra and in MestreNova for 1D spectra.2 Further analysis was done using GraphPad Prism and in-house python scripts.

A further assay has as its target T3, DC-SIGN ECD wildtype (Homo sapiens, UniProt Q9NNX6).
T3 construct: acids 64 -404 of DC -SIGN; made in house
T3 sequence (Q9NNX6 64-404): T2 sequence (Q9NNX6 64-404 M270F) with F207M
In words: Plate-based horseradish peroxidase assay. The note with it: 1 µg mL-1 HRP, 25 mM CaCl2. Here is the method:
as §1, §2, §3, §4, §5, §6, §7, §8, §9, §10, §11, §12, §13, §14

Where [1] appears, read: read-out: IC50, inhibition of HRP binding.

Structures are written as SMILES. Residue numbers refer to the chain shown, from its start.

As a reminder, the Kd is the constant that tells how readily two partners part at equilibrium. Higher therefore signals weaker binding. In general, IC50 refers to the concentration needed to halve the response being measured. Take `OC[C@H]1OC(O)[C@@H](O)[C@@H](O)[C@@H]1O` (some centres unmarked) [mannose]: on DC-SIGN CRD wildtype, binding was put at a Kd of 3.3 ± 0.3 mM. Besides, the “hill slope, inhibition of HRP binding” value on DC-SIGN ECD M270F is given as -1.5; at DC-SIGN ECD wildtype, -1.8. The IC50 on DC-SIGN ECD M270F (setting [1]) was found to be 3.1 mM; at DC-SIGN ECD wildtype (setting [1]) it was 2.3 mM.

The values above are taken from publication PMC12933331, “A Cryptic Pocket Allosterically Modulates Oligosaccharide Binding to DC-SIGN” (JACS Au, 2026).
